Literature values in article PMC10197133, “Synthesis, Computational Insights, and Evaluation of Novel Sigma Receptors Ligands” (ACS Chemical Neuroscience, 2023).

Molecular target: S1R (Rattus norvegicus, UniProt Q9R0C9)
Settings: statement in the introduction; cited from earlier work

Chain of S1R (Q9R0C9 whole entry): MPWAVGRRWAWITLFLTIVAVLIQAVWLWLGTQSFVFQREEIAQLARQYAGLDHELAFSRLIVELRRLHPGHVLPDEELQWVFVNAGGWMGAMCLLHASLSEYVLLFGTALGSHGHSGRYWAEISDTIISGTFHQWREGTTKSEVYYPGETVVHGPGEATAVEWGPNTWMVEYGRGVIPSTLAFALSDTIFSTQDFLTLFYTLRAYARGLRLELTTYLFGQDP

CCCN1CCC(c2cccc(S(C)(=O)=O)c2)CC1 [Pridopidine]
fold greater affinity for S1R than for D2: 100 fold
